Holding throughout (assay): DTP human tumour cell line panel, 48 h
The subject of assay [1] is BT-549 breast.
Assay [2] deals with HOP-92 NSCLC.
Assay [3] relates to IGROV1 ovarian.
The subject of assay [4] is MCF7 breast.
The subject of assay [5] is PC-3 prostate.
Assay [6] relates to SN12C renal.
Assay [7] concerns SNB-19 CNS.
In assay [8] the test system is MOLT-4 leukemia.
Assay [9] concerns NCI-H226 lung.
The test system of assay [10] is RXF 393 renal.

Structures are written as SMILES. Several values for one entry are separate records, joined by “and”; a condition that tells them apart may be missing. Equal entries are not always repeated.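 Cultured in 96-well plates, cells were exposed to test compound for 48 hours across five concentrations. The concentration for 50% growth inhibition is given as GI50. Definition used: TGI = concentration required for complete inhibition of growth.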 A value given as a limit tells only on which side of the number the result lay.

For orientation: GI50 means the concentration that inhibits growth by half. What is called TGI is the concentration giving total growth inhibition. Regarding `Oc1ccccc1Nc1nc2ccccc2c2occc12`, the GI50 was 7.59 µM in [1]; 5.73 µM in [2]; 0.0614 µM in assay [3]; 25.2 µM in [4]; 10.9 µM in assay [5]; 11.1 µM in [6]. The GI50 in assay [7] is 7.22 µM. The TGI in assay [1] stood at 20.7 µM; in [2], 19.5 µM; in assay [3] it was 15.8 µM; in assay [4], 51.8 µM; in assay [5], 22.8 µM; in assay [6], 23.1 µM. The TGI in assay [7] came out at 20.3 µM.
With `N#Cc1c(-c2ccc(Cl)cc2)c(-c2ccc(Cl)cc2)nn(CCOC(=O)CCC(=O)O)c1=O`, the TGI in [1] was more than 100 µM; in assay [2] it was 15.2 µM; in assay [3], more than 85.3 µM; in assay [4], more than 62.3 µM; in assay [8] it was 41.3 µM; in assay [9] it was 1.42 µM. For the same molecule, the TGI in assay [5] was more than 48.4 µM; in assay [10], 11.9 µM; in assay [6] it was more than 60 µM; in assay [7] it was more than 49.2 µM.
`CCCC(=O)Nc1cc([N+](=O)[O-])c([N+](=O)[O-])cc1OC`: the TGI in assay [1] is 31 µM; in assay [3], 38.9 µM; in assay [4] it was more than 100 µM; in assay [9], 51.2 µM; in assay [5] it was more than 100 µM; in assay [6], 29.5 µM. This molecule yielded a concentration for total growth inhibition (TGI) in [7] of 30.7 µM.
In the case of `CC(C)=CCc1ccc(O)c(=O)cc1C(C)C`, the GI50 is 1.05 µM in [1]; 1.32 µM in [2]; 0.43 µM in [3]; 0.501 µM in [4]; 0.394 µM in assay [8]; 2.37 µM in assay [9]. Also, the GI50 is 1.13 µM in [5], 1.55 µM in assay [10], 0.844 µM in assay [6] and 0.735 µM in [7]. In addition, the TGI was 36.4 µM in assay [1]; 65.3 µM in [2]; 16.1 µM in [3]; more than 100 µM in assay [4]; more than 100 µM in [8]; more than 100 µM in assay [9]. Also, the TGI was more than 100 µM in assay [5], 17.4 µM in assay [10], more than 100 µM in assay [6] and more than 100 µM in assay [7].
On to `COC(=O)c1cc2c3ccccc3n3c(=O)c4cc5cc(OC)c(N(S(=O)(=O)c6ccc(C)cc6)S(=O)(=O)c6ccc(C)cc6)cc5nc4c(n1)c23`, for which the GI50 in [1] is 11 µM; in assay [2], 4.42 µM; in assay [4] it was more than 100 µM; in assay [8], 35.2 µM; in [9], 23.9 µM; in [5], more than 100 µM. Besides, the GI50 in [10] was 7.56 µM; in [6], 95.7 µM; in [7], 5.8 µM. The TGI in assay [1] was 27.8 µM; in [2], 21.3 µM; in assay [4], more than 100 µM; in [8] it was more than 100 µM; in assay [9] it was more than 100 µM; in assay [5] it was more than 100 µM. For the same molecule, the figures for the TGI in assay [10], in [6] and in assay [7] were 26.1 µM, more than 100 µM and 32 µM, respectively.
Regarding `COC(=O)c1oc2c(O)c(OC)c(Br)cc2c1C`, the GI50 is 17.7 µM in [1]; 32.7 µM in [3]; 27.1 µM in assay [4]; 22.4 µM in [8]; 29 µM in [9]; 21.2 µM in assay [5]. Moreover, the GI50 is 28.6 µM in assay [10] and 22.9 µM in assay [7]. The TGI in [1] was 42.6 µM; in [3], 91.6 µM; in assay [4] it was more than 100 µM; in assay [8], 43 µM; in assay [9], 50.2 µM; in assay [5], 39.7 µM. The TGI in [10] came out at 67.1 µM; in assay [7] it was 46.1 µM.
As for `COc1ccc2cc3[n+](cc2c1OC)CCc1cc2c(cc1-3)OCO2`, the GI50 is 3.71 µM and 2.59 µM and 5.39 µM in [1]; 8.54 µM in assay [2]; 18.4 µM in assay [3]; 6.61 µM in [5]; 50.7 µM in assay [10]; 0.831 µM in assay [7]. Moreover, the concentration for total growth inhibition (TGI) in assay [1] was > 100 µM and 56.9 µM; in [3] it was > 100 µM and 137 µM; in [4], > 100 µM and > 88.3 µM and 126 µM; in assay [9], > 100 µM and 94.9 µM and 67.5 µM; in assay [5], more than 100 µM; in assay [10], > 100 µM and 223 µM. Further, the total growth inhibition concentration (TGI) in assay [6] was > 100 µM and 75.2 µM and 81 µM; in assay [7], > 100 µM and > 77.2 µM and 145 µM.
In the case of `CC(C)(C)c1cn2cccc(C(=O)N3CCN(CC(=O)Nc4ccc(Cl)cc4C(=O)c4ccccc4Cl)CC3)c2n1`, the GI50 in assay [1] is 3.8 µM; in [3] it was 16.4 µM; in assay [4], 3.94 µM; in [8], 5.52 µM; in [9] it was 11.3 µM; in [5], 2.35 µM. For the same molecule, the values for the GI50 in [10], in [6] and in assay [7] were 1.71 µM, 10.6 µM and 15.3 µM, respectively. For the same molecule, the TGI in assay [1] was 19.7 µM; in assay [3], 38.5 µM; in assay [4], 20.8 µM; in [8] it was more than 100 µM; in [9], 37 µM; in [5] it was 6.88 µM. Also, the TGI stood at 6.34 µM in assay [10], 35.4 µM in assay [6] and 54.8 µM in assay [7].
In the case of `O[C@@H]1CCCN1Cc1cc2cc3c(cc2c2cc(OCc4ccccc4)ccc12)OCO3`, the GI50 was 11 µM in assay [1]; 1.53 µM in [2]; 5.48 µM in assay [3]; 2.15 µM in assay [4]; 3.38 µM in assay [8]; 15.7 µM in assay [9]. Moreover, the GI50 in assay [10] was 1.53 µM; in assay [6], 3.6 µM; in [7], 6.23 µM. Moreover, the TGI in [1] was 26.4 µM; in [2], 5.36 µM; in assay [3], 20.1 µM; in assay [4] it was 5.07 µM; in [8], 14.1 µM; in [9] it was 37.7 µM. Moreover, the TGI in [10] was found to be 3.85 µM; in assay [6] it was 20.3 µM; in [7], 21.4 µM.
Regarding `Cn1c(=O)c2[nH]c(C3CC(=O)CC(c4nc5c([nH]4)c(=O)n(C)c(=O)n5C)N3)nc2n(C)c1=O` (configuration not stated), the TGI in assay [1], in assay [3], in assay [4], in assay [8], in assay [9] and in [5] was more than 100 µM in each case. For the same molecule, the TGI in assay [10], in assay [6] and in assay [7] was more than 100 µM in each case.
In the case of `c1ccc2c(-c3nc4ccccc4[nH]3)cccc2c1`, the GI50 was 3.3 µM in [1]; 4.27 µM in assay [2]; 5.01 µM in assay [3]; 2.94 µM in assay [4]; 2.9 µM in [8]; 3.88 µM in [5]. Moreover, the values for the GI50 in [10], in [6] and in assay [7] were 2.58 µM, 5.03 µM and 4.26 µM, respectively. The TGI was 80 µM in [1]; 38.2 µM in assay [2]; 40.3 µM in [3]; 37.9 µM in [4]; 83.8 µM in [8]; more than 100 µM in assay [5]. Also, the TGI was 12 µM in [10], more than 100 µM in assay [6] and 40.4 µM in assay [7].
Regarding `O=C1CSC(=S)N1Cc1cccnc1`, the GI50 in [1] is 18.6 µM; in assay [3], 4.4 µM; in assay [4], 2.43 µM; in assay [8], 11.6 µM; in assay [9] it was 42.3 µM; in assay [5], 16.2 µM. The GI50 was 6.11 µM in assay [10], 14.5 µM in [6] and 47.8 µM in [7]. In addition, the TGI in assay [1] is 44.3 µM; in assay [3], 19 µM; in assay [4], 12.8 µM; in assay [8] it was more than 100 µM; in [9], more than 100 µM; in [5], more than 100 µM. Further, the results for the TGI in assay [10], in [6] and in assay [7] were 24.2 µM, 29.2 µM and more than 100 µM, respectively.
With `CC(=O)c1c(O)ccc2c(C)c(C(=O)O)oc12`, the GI50 in [1] was more than 100 µM; in [2] it was more than 100 µM; in assay [3] it was more than 100 µM; in [4] it was more than 100 µM; in assay [8], more than 100 µM; in assay [9], 0.0188 µM. Also, the GI50 in [5], in assay [10] and in assay [7] was more than 100 µM throughout. Moreover, the TGI in assay [1] was more than 100 µM; in [2], more than 100 µM; in assay [3], more than 100 µM; in assay [4], more than 100 µM; in [8] it was more than 100 µM; in assay [9], 12.2 µM. For the same molecule, the TGI in assay [5], in assay [10] and in assay [7] was more than 100 µM in each case.
Take `Cc1[nH]n(-c2ccc(S(=O)(=O)O)cc2)c(=O)c1N=Nc1ccccc1`: the TGI in assay [1], in [2], in [3], in assay [4], in [8] and in assay [5] was more than 100 µM throughout. Besides, the TGI in assay [10], in assay [6] and in [7] was more than 100 µM in each case.

The values are drawn from PubChem BioAssay (NCI).
